Experimental data from PubChem BioAssay AID2060603 (Molecular Pharmacology Branch, DTP, NCI, 2025).
Where “and” joins values, the source holds several entries; their conditions need not be identical. Identical values can stand only once.

Test system: 422866-222-R5-J1-PDC spheroid viability
Assay: Anticancer human tumor 422866-222-R5-J1-PDC patient-derived pancreatic adenocarcinoma cell line growth inhibition [CLK]
Settings: spheroids with HUVEC and MSC; for viability, T/C: stronger effect = lower value
Method in brief: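 Multi-cell-type spheroids combined patient-derived tumor cells with HUVEC endothelial cells and human mesenchymal stem cells. Paired agents were dosed in half-log steps down from about clinical Cmax, or from 10 microM where Cmax was unknown.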

[1] = curve of first compound, second compound 0.0316 µM
[2] = curve of first compound, second compound 0.1 µM
[3] = curve of first compound, second compound 0.316 µM
[4] = curve of first compound, second compound 1 µM
[5] = curve of first compound, second compound 3.16 µM
[6] = curve of first compound, second compound 10 µM
[7] = second compound 0.0316 µM, first compound 0.0316 µM
[8] = second compound 0.0316 µM, first compound 0.1 µM
[9] = second compound 0.0316 µM, first compound 0.316 µM
[10] = second compound 0.0316 µM, first compound 1 µM
[11] = second compound 0.0316 µM, first compound 3.16 µM
[12] = second compound 0.0316 µM, first compound 10 µM
[13] = second compound 0.1 µM, first compound 0.0316 µM
[14] = second compound 0.1 µM, first compound 0.1 µM
[15] = second compound 0.1 µM, first compound 0.316 µM
[16] = second compound 0.1 µM, first compound 1 µM
[17] = second compound 0.1 µM, first compound 3.16 µM
[18] = second compound 0.1 µM, first compound 10 µM
[19] = second compound 0.316 µM, first compound 0.0316 µM
[20] = second compound 0.316 µM, first compound 0.1 µM
[21] = second compound 0.316 µM, first compound 0.316 µM
[22] = second compound 0.316 µM, first compound 1 µM
[23] = second compound 0.316 µM, first compound 3.16 µM
[24] = second compound 0.316 µM, first compound 10 µM
[25] = second compound 1 µM, first compound 0.0316 µM
[26] = second compound 1 µM, first compound 0.1 µM
[27] = second compound 1 µM, first compound 0.316 µM
[28] = second compound 1 µM, first compound 1 µM
[29] = second compound 1 µM, first compound 3.16 µM
[30] = second compound 1 µM, first compound 10 µM
[31] = second compound 3.16 µM, first compound 0.0316 µM
[32] = second compound 3.16 µM, first compound 0.1 µM
[33] = second compound 3.16 µM, first compound 0.316 µM
[34] = second compound 3.16 µM, first compound 1 µM
[35] = second compound 3.16 µM, first compound 3.16 µM
[36] = second compound 3.16 µM, first compound 10 µM
[37] = second compound 10 µM, first compound 0.0316 µM
[38] = second compound 10 µM, first compound 0.1 µM
[39] = second compound 10 µM, first compound 0.316 µM
[40] = second compound 10 µM, first compound 1 µM
[41] = second compound 10 µM, first compound 3.16 µM
[42] = second compound 10 µM, first compound 10 µM
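Note: spheroids exposed to agents for seven days before readout.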

With `CCCS(=O)(=O)Nc1ccc(F)c(C(=O)c2c[nH]c3ncc(-c4ccc(Cl)cc4)cc23)c1F` the viability, T/C (compound 0.0316 µM) was 103% and 89.2%, the viability, T/C (compound 0.1 µM) was 100% and 86% and the viability, T/C (compound 0.316 µM) was 128% and 114%. The viability, T/C (compound 1 µM) was 147% and 152%, the viability, T/C (compound 3.16 µM) was 169% and 165% and the viability, T/C (compound 10 µM) was 137% and 149%. The IC50 (curve of compound) was > 10000 nM.

`C=C(F)C(=O)N1CCN(c2nc(OCC3CCCN3C)nc3c2CCN(c2cccc4cccc(Cl)c24)C3)CC1CC#N` (configuration not stated) + CNC(=O)c1ccc(Nc2nc(OC3CCCC3)c3c(-c4ccc5nc(C)oc5c4)c[nH]c3n2)c(OC)c1 was tested, and the IC50 [1] was < 31.6 nM, the IC50 [2] was < 31.6 nM and the IC50 [3] was < 31.6 nM. For the same compound, the IC50 [4] was < 31.6 nM, the IC50 [5] was < 31.6 nM and the IC50 [6] was < 31.6 nM. The viability, T/C [7] was 39.9%, the viability, T/C [8] was 29.7% and the viability, T/C [9] was 23.2%. The viability, T/C [10] was 25.3%, the viability, T/C [11] was 15.7% and the viability, T/C [12] was 0.15%. It also gave a viability, T/C [13] of 38.7%, a viability, T/C [14] of 23.9% and a viability, T/C [15] of 23.3%. For the same compound, the viability, T/C [16] was 20.6%, the viability, T/C [17] was 15% and the viability, T/C [18] was 0.14%. It also gave a viability, T/C [19] of 29.8%, a viability, T/C [20] of 23.6% and a viability, T/C [21] of 25.1%. It also gave a viability, T/C [22] of 23.1%, a viability, T/C [23] of 14.8% and a viability, T/C [24] of 0.14%. For the same compound, the viability, T/C [25] was 30.3%, the viability, T/C [26] was 24.8% and the viability, T/C [27] was 22.4%. It also gave a viability, T/C [28] of 23.3%, a viability, T/C [29] of 18.2% and a viability, T/C [30] of 4.65%. It also gave a viability, T/C [31] of 28.4%, a viability, T/C [32] of 29.2% and a viability, T/C [33] of 24.5%. It also gave a viability, T/C [34] of 25%, a viability, T/C [35] of 20.4% and a viability, T/C [36] of 0.15%. The viability, T/C [37] was 30%, the viability, T/C [38] was 28.4% and the viability, T/C [39] was 28.1%. The viability, T/C [40] was 24.6%, the viability, T/C [41] was 18.5% and the viability, T/C [42] was 0.17%.

For `CC1(C)CCC(CN2CCN(c3ccc(C(=O)NS(=O)(=O)c4ccc(NCC5CCOCC5)c([N+](=O)[O-])c4)c(Oc4cnc5[nH]ccc5c4)c3)CC2)=C(c2ccc(Cl)cc2)C1`, the viability, T/C (compound 0.0316 µM) was 89.7% and 94.5%, the viability, T/C (compound 0.1 µM) was 95.6% and 97.1% and the viability, T/C (compound 0.316 µM) was 103% and 77.2%. For the same compound, the viability, T/C (compound 1 µM) was 105% and 92.1%, the viability, T/C (compound 3.16 µM) was 99.1% and 120% and the viability, T/C (compound 10 µM) was 69.8% and 69%. For the same compound, the IC50 (curve of compound) was > 10000 nM.

`Nc1ccn(C2OC(CO)C(O)C2(F)F)c(=O)n1` (configuration not stated) + CNC(=O)c1ccc(Nc2nc(OC3CCCC3)c3c(-c4ccc5nc(C)oc5c4)c[nH]c3n2)c(OC)c1 was tested, and the IC50 [1] was 939 nM, the IC50 [2] was 125 nM and the IC50 [3] was 86 nM. It also gave an IC50 [4] of 119 nM, an IC50 [5] of 158 nM and an IC50 [6] of 72.4 nM. For the same compound, the viability, T/C [7] was 61.4%, the viability, T/C [8] was 57.8% and the viability, T/C [9] was 53.7%. It also gave a viability, T/C [10] of 50%, a viability, T/C [11] of 45.3% and a viability, T/C [12] of 39.6%. It also gave a viability, T/C [13] of 90.4%, a viability, T/C [14] of 50.8% and a viability, T/C [15] of 44.9%. For the same compound, the viability, T/C [16] was 46.1%, the viability, T/C [17] was 36.3% and the viability, T/C [18] was 42.1%. The viability, T/C [19] was 73.8%, the viability, T/C [20] was 46.7% and the viability, T/C [21] was 37.8%. It also gave a viability, T/C [22] of 40.6%, a viability, T/C [23] of 36% and a viability, T/C [24] of 37.5%. It also gave a viability, T/C [25] of 69.8%, a viability, T/C [26] of 51.4% and a viability, T/C [27] of 42.8%. It also gave a viability, T/C [28] of 32.2%, a viability, T/C [29] of 39.2% and a viability, T/C [30] of 43.8%. The viability, T/C [31] was 55.2%, the viability, T/C [32] was 60.7% and the viability, T/C [33] was 42.1%. It also gave a viability, T/C [34] of 40.4%, a viability, T/C [35] of 33.7% and a viability, T/C [36] of 34.1%. The viability, T/C [37] was 67.8%, the viability, T/C [38] was 42.9% and the viability, T/C [39] was 40.3%. For the same compound, the viability, T/C [40] was 33.7%, the viability, T/C [41] was 39.2% and the viability, T/C [42] was 40.6%.

`COc1c(OCCCN2CCOCC2)ccc2c3n(c(=NC(=O)c4cnc(N)nc4)nc12)CCN3` + CNC(=O)c1ccc(Nc2nc(OC3CCCC3)c3c(-c4ccc5nc(C)oc5c4)c[nH]c3n2)c(OC)c1 gave an IC50 [1] of 11.9 nM, an IC50 [2] of 16.8 nM and an IC50 [3] of 11.8 nM. For the same compound, the IC50 [4] was < 3.16 nM, the IC50 [5] was 8.5 nM and the IC50 [6] was < 3.16 nM. The viability, T/C (second compound 0.0316 µM, first compound 0.00316 µM) was 83.3%, the viability, T/C (second compound 0.0316 µM, first compound 0.01 µM) was 51.5% and the viability, T/C [7] was 39.9%. The viability, T/C [8] was 26.8%, the viability, T/C [9] was 28.4% and the viability, T/C [10] was 30.3%. The viability, T/C (second compound 0.1 µM, first compound 0.00316 µM) was 72.2%, the viability, T/C (second compound 0.1 µM, first compound 0.01 µM) was 60% and the viability, T/C [13] was 37.7%. The viability, T/C [14] was 32.1%, the viability, T/C [15] was 26.7% and the viability, T/C [16] was 33.4%. The viability, T/C (second compound 0.316 µM, first compound 0.00316 µM) was 62.8%, the viability, T/C (second compound 0.316 µM, first compound 0.01 µM) was 53.6% and the viability, T/C [19] was 29.5%. For the same compound, the viability, T/C [20] was 23.9%, the viability, T/C [21] was 25.7% and the viability, T/C [22] was 32.9%. The viability, T/C (second compound 1 µM, first compound 0.00316 µM) was 50.1%, the viability, T/C (second compound 1 µM, first compound 0.01 µM) was 47.1% and the viability, T/C [25] was 33.5%. The viability, T/C [26] was 27.6%, the viability, T/C [27] was 25.9% and the viability, T/C [28] was 36.8%. The viability, T/C (second compound 3.16 µM, first compound 0.00316 µM) was 57.6%, the viability, T/C (second compound 3.16 µM, first compound 0.01 µM) was 48.7% and the viability, T/C [31] was 31.9%. The viability, T/C [32] was 25.4%, the viability, T/C [33] was 28.6% and the viability, T/C [34] was 36.1%. It also gave a viability, T/C (second compound 10 µM, first compound 0.00316 µM) of 47.2%, a viability, T/C (second compound 10 µM, first compound 0.01 µM) of 43.3% and a viability, T/C [37] of 35.5%. For the same compound, the viability, T/C [38] was 28%, the viability, T/C [39] was 33.5% and the viability, T/C [40] was 36.1%.

In the case of `Nc1ccccc1NC(=O)c1ccc(CNC(=O)OCc2cccnc2)cc1`, the viability, T/C (compound 0.0316 µM) is reported as 102% and 93.7%, the viability, T/C (compound 0.1 µM) is reported as 129% and 108% and the viability, T/C (compound 0.316 µM) is reported as 144% and 139%. The viability, T/C (compound 1 µM) was 106% and 104%, the viability, T/C (compound 3.16 µM) was 78.5% and 92.5% and the viability, T/C (compound 10 µM) was 86.9% and 81.8%. The IC50 (curve of compound) was > 10000 nM.
